These results are taken from article PMC6010079, “Inhibition of dengue virus replication by novel inhibitors of RNA-dependent RNA polymerase and protease activities” (Journal of Enzyme Inhibition and Medicinal Chemistry, 2017).

Values joined by “and” are separate entries in the source; they are usually repeats but may differ in a detail not shown here. Equal values may be shown once. Read-outs that look alike come from different tables or passages of the source.

The EC50 is the concentration giving half of the maximal effect.

The target of data set [1] is T1, DENV-2 NS5 RdRp (Dengue virus type 2, UniProt P29990). Briefly: Cell-based RdRp reporter assay (p(+)RLuc-(–)DV-UTRΔC-FLuc + pcDNA-NS5-Myc in Huh-7 cells). The conditions noted are these: 3 days treatment. How it is done:
(§1) The cell-based experiments were performed as previously described. Briefly, the Huh-7 cells were transfected with 0.5 µg of p(+)RLuc-(–)DV-UTRΔC-FLuc and DENV NS5 expression vector pcDNA-NS5-Myc followed by compound treatment for 3 days. The RLuc and FLuc activities were analysed by Dual-Glo Luciferase Assay System[37]. The enzyme-based fluorescence-based alkaline phosphatase-coupled polymerase assay (FAPA) was performed as previously described. Briefly, the template was amplified from the cDNA of DENV-2 minus strand 3′-UTR and its RNA was synthesised by the T7 Megascript kit[38]. The 100 nM DENV NS5 protein was incubated with 1, 5 or 10 µM test compound, 100 nM (−) 3′-UTR RNA, 20 µM CTP, GTP, UTP and 20 µM BBT-ATP (Jena Bioscience) in a total volume of 30 µL in assay buffer (50 mM Tris-HCl, pH 7.5, 10 mM KCl, 1 mM MgCl2, 0.3 mM MnCl2, 0.001% Triton X-100 and 10 µM cysteine) at 25 °C for 60 min. The 30 µL of 2.5× stop buffer (200 mM NaCl, 25 mM MgCl2, 1.5 M diethanolamine, pH 10) with 25 nM calf intestinal alkaline phosphatase (Promega) was added to the reaction after 60-min incubation. The fluorescence signal was measured at excitation wavelength of 422 nm and emission wavelength of 566 nm, respectively.
On the technique in general: A reporter such as luciferase makes a cellular process visible.

A short description of data set [2]: Cell cytotoxicity assay (MTS). Format: cell-based. The conditions noted are these: human, Huh-7 cells, 3 days incubation, read-out: CC50 (half maximal cytotoxicity concentration). How it is done: The Huh-7 cells were seeded in 96-well and treated with test compound at concentration of 0, 10, 25, 50, 100, 150 and 200 µM. After 3 days incubation, the cell viability was determined by CellTiter 96 AQueous One Solution Cell Proliferation Assay (MTS assay) as previously reported. Briefly, the MTS assay buffer was added to the cultured plate following removal of the culture medium. After 2 h of incubation at 37 °C, the absorbance at 492 nm was measured. The cell viability was calculated from non-linear regression curve fitting using GraphPad Prism7. The zero dose was defined as 100%. Results were obtained from three independent experiments.

The target of data set [3] is T1, DENV-2 NS5 RdRp. The experiment in a line: Enzyme-based RdRp activity assay (FAPA). Also noted: the supernatant containing His-tagged DENV-2 NS5 protein; His; made in house; host or cells: Sf9 insect cells (baculovirus vAc-DENV-NS5). Format: biochemical. The note with it: 100 nM DENV NS5 protein, (−) 3′UTR RNA, BBT-ATP, 25 °C, 60 min. On the procedure:
The DENV-2 NS5 protein purification was performed as previously described. Briefly, Sf9 cells were infected by the recombinant baculovirus vAc-DENV-NS5 at an MOI of 10 for 3 days. The cells were pelleted by centrifugation at 1000×g for 5 min at 4 °C and washed twice with phosphate-buffered saline (PBS). The cells were suspended in 5 mL of binding buffer (20 mM sodium phosphate, pH 7.5, 300 mM NaCl, 20 mM imidazole) containing protease inhibitor cocktail, and then disrupted by sonication. After centrifugation, the supernatant containing His-tagged DENV-2 NS5 protein was subjected to metal affinity chromatography employing the AKTA prime protein purification system. The eluted DENV-2 NS5 protein was concentrated by an Amicon Ultra-15 30 k centrifugal filter device[36] and then dialysed against PBS overnight at 4 °C.
as §1

In data set [4] the test system is DENV-2. Briefly: Anti-DENV RNA activity: RT-qPCR of DENV RNA in DENV-2-infected Huh-7 cells. Format: cell-based, DENV-2 (DENV type-2 strain 16681). The note with it: for SI (selectivity index, CC50/EC50 ratio): CC50 in Huh-7 / EC50 DENV-2 RNA. How it is done: Huh-7 cells were seeded in 24-well plate and infected DENV at an MOI of 0.2 for 2 h and followed by test compound treatment at concentration of 0, 1, 5, 10, 25, 50 and 100 µM for 3 days. The total cellular RNA was harvested by RNA extraction kit[32] following manufacturer’s instrument. DENV RNA and cellular mRNA levels were determined by quantitative real-time reverse-transcription polymerase chain reaction (RT-qPCR) with specific primers. The DENV RNA level was normalised by cellular glyceraldehydes-3-phosphate dehydrogenase (GAPDH) mRNA level. The relative DENV RNA level was calculated by StepOne™ Software v2.2.2 (Applied Biosystems, Foster City, CA, USA) following normalisation of cellular glyceraldehydes-3-phosphate dehydrogenase (GAPDH) mRNA level. The zero dose was defined as 100%. The EC50 values were calculated from non-linear regression curve fitting using GraphPad Prism7 software (San Diego, CA, USA). Results were obtained from three independent experiments.

Data set [5] has as its system DENV-2. The experiment in a line: Anti-DENV activity in DENV-infected ICR-suckling mouse model. Format: in vivo. The note with it: 6-day-old ICR-suckling mice; for Clinical scores and body weight (DENV-induced pathology): 2.5 × 10^5 pfu DENV-2, within 4 to 6 dpi; for Survival rate: DENV-2, compared to untreated mice. From the text:
Breeder ICR mice were purchased from BioLasco Taiwan Co. Ltd. The experimental protocol was approved by the Animal Research Committee of Kaohsiung Medical University of Taiwan (IACUC, protocol number 102177). All mice received humane care and fed with standard rodent chew and water ad libitum. Mice were kept under a standard laboratory condition following the Animal Use Protocol of Kaohsiung Medical University. The 6-day-old ICR-suckling mice were intracerebrally injected with DENV-2 followed by intracerebrally injecting saline or test compound at 1, 3, 5 days postinfection (dpi). […] The body weight, clinical scores and survival rate were recorded every day. The mice were sacrificed at 6 dpi.
To access the antiviral activity of compound 3 and 4in vivo, 6-day-old ICR-suckling mice were inoculated with 2.5 × 10^5 pfu of DENV-2 by intracerebral injection and then were administered with compound 3 (10 mg/kg) or 4 (1 mg/kg) by intracerebral injection at 1-, 3- and 5-day postinfection (dpi); inoculation of heat-inactivated DENV-2 (iDENV) served as a mock control.

The next data set has as its target T2, DENV NS2B/NS3pro protein (Dengue virus type 2, UniProt P29990).
T2 construct: made in house; host or cells: Escherichia coli BL21 (DE3)
The experiment in a line: Enzyme-based DENV NS2B/NS3 protease assay (Boc-GRR-AMC substrate). Format: biochemical. The note with it: Enzyme-based EC50 ± SD (DENV-2 NS3 protease), 100 nM NS2B/NS3pro, 10 µM Boc-GRR-AMC, 30 min, 25 °C. On the procedure: The DENV NS2B/NS3pro purification was performed as previously described. Briefly, the pET24b-NS2B-NS3pro plasmid was transformed into competent Escherichia coli BL21 (DE3) and grew in kanamycin (50 µg/mL)-containing LB at 26 °C until OD600 nm reached 0.6. The isopropyl-β-D-thiogalactopyranose was added into the bacterial culture at 0.5 mM for protein induction. After 12-h incubation, cells were collected and subjected to protein purification following previous description.
(§2) For cell-based activity assay, the Huh-7 cells were cotransfected with 0.5 µg of pEG(MITA)SEAP reporter vector and DENV protease expression vector pcDNA-NS2B-GSG-NS3-Myc followed by compound treatment for 3 days. The SEAP activity was analysed by Phospha-Light SEAP Reporter Gene Assay System[40]. The enzyme-based experiment was performed as previously described. Briefly, the 7-amino-4-methylcoumarin (AMC) fluorophore-linked peptide substrate Boc-GRR-AMC[41] and purified DENV NS2B/NS3pro protein were used to analyse DENV NS2B/NS3 protease activity. The 100 nM DENV NS2B/NS3pro protein was incubated with 1, 5 or 10 µM tested compound and 10 µM Boc-GRR-AMC in cleavage buffer (200 mM Tris [pH 9.5], 20% glycerol) for 30 min at 25 °C. The fluorescence signal was detected at excitation wavelength of 380 nm and emission wavelength of 465 nm, respectively.

The next data set has as its target T3, DENV-2 NS3 protease (Dengue virus type 2, UniProt P29990).
T3 construct: DENV protease expression vector pcDNA-NS2B-GSG-NS3-Myc; expressed in transfected cells; host or cells: Huh-7
Briefly: Cell-based DENV protease reporter assay (pEG(MITA)SEAP + pcDNA-NS2B-GSG-NS3-Myc in Huh-7 cells). The note with it: 3 days treatment, read-out: Cell-based EC50 ± SD (DENV-2 NS3 protease). How it is done: as §2

The mark [6] stands for this setting: Dengue virus, DENV2, Huh-7, 72 h, Huh-7 cells infected with DENV-2 at MOI 0.2, 3 days treatment, qRT-PCR with primers targeting NS5, normalised to GAPDH, read-out: EC50 ± SD (DENV-2 RNA).
[7] abbreviates: Huh-7 cells infected with DENV-2 at MOI 0.2, 3 days treatment, qRT-PCR with primers targeting NS5, normalised to GAPDH, read-out: EC50 ± SD (DENV-2 RNA).
[8] abbreviates: 10 mg/kg intracerebral injection at 1, 3, 5 dpi.
[9] abbreviates: Dengue virus, DENV2, Huh-7, 72 h, read-out: EC50 ± SD (DENV-2 RNA), Huh-7 cells infected with DENV-2 at MOI 0.2, 3 days treatment, qRT-PCR with primers targeting NS5, normalised to GAPDH.
Where [10] appears, read: 1 mg/kg intracerebral injection at 1, 3, 5 dpi.
[11] abbreviates: Cell-based EC50 ± SD (DENV-2 NS5 RdRp).
[12] abbreviates: read-out: Enzyme-based EC50 ± SD (DENV-2 NS5 RdRp).
Where [13] appears, read: read-out: EC50 ± SD (DENV-2 RNA), Huh-7 cells infected with DENV-2 at MOI 0.2, 3 days treatment, qRT-PCR with primers targeting NS5, normalised to GAPDH.

T3 sequence (P29990 1476-2093): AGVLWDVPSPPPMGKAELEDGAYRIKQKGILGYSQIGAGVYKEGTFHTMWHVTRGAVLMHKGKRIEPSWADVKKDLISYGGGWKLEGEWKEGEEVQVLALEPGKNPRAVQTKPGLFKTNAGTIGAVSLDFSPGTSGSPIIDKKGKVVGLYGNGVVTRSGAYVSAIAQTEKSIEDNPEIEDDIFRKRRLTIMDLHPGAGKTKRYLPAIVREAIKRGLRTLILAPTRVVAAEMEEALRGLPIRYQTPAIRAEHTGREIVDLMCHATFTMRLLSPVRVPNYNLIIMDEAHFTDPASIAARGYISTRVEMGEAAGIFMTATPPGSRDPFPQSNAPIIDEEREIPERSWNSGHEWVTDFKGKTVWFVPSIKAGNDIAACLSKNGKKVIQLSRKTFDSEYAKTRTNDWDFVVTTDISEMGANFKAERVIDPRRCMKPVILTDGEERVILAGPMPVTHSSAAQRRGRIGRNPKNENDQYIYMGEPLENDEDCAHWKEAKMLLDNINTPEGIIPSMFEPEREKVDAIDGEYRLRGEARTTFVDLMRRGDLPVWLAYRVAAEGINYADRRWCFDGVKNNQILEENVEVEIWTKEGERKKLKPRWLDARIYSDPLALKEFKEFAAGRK
T1 sequence (P29990 2492-3391): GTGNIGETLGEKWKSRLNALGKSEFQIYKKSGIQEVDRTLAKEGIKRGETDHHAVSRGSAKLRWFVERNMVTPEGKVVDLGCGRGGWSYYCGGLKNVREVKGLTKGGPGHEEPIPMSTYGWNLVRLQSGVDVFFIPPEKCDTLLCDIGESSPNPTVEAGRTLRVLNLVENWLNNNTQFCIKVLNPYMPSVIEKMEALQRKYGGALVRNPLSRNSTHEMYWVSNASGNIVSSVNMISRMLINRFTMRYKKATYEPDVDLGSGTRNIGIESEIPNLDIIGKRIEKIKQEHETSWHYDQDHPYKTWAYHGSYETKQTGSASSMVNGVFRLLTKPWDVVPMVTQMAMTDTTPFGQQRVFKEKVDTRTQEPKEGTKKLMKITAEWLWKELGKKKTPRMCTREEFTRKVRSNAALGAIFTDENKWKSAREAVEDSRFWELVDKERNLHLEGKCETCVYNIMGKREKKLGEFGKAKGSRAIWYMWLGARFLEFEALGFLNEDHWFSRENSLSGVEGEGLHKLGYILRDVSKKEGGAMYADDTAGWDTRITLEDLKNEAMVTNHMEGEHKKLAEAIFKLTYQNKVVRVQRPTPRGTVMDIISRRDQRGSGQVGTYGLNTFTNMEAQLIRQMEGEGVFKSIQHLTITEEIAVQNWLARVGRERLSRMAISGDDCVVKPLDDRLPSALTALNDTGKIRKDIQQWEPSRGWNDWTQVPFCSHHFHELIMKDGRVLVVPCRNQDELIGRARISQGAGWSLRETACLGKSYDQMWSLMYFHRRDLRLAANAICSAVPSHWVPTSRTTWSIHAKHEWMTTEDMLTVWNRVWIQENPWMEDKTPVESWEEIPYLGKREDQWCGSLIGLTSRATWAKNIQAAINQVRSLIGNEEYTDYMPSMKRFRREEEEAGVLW
T2 sequence (P29990 1346-1475): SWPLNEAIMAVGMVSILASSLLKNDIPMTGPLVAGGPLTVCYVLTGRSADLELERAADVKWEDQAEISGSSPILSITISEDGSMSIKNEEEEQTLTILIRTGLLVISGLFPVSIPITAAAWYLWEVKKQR
T2 sequence (P29990 1476-1653): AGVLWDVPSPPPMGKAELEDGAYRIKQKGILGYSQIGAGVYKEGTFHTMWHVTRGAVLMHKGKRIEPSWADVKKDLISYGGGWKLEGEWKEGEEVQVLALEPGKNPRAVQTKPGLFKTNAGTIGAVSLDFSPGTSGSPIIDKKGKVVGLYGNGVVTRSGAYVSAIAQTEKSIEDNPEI

Turning to `CCOC(=O)c1cnn(-c2ccccc2)c1N(S(=O)(=O)c1ccc([N+](=O)[O-])cc1)S(=O)(=O)c1ccc([N+](=O)[O-])cc1` [Compound 3, Ethyl 5–(4-nitro-N-((4-nitrophenyl)sulphonyl)phenylsulphonamido)-1-phenyl-1H-pyrazole-4-carboxylate], the EC50 was 5.99 µM and 6 µM at DENV-2 NS5 RdRp [1] (read-out: Cell-based EC50 ± SD (DENV-2 NS5 RdRp)); 4.87 µM and 4.9 µM on DENV-2 NS5 RdRp [3] (Enzyme-based EC50 ± SD (DENV-2 NS5 RdRp)); 5.66 ± 0.25 µM in the data set with DENV-2 [4] (setting [6]); 5.7 ± 0.3 µM with DENV-2 [4] (setting [7]). Further, the CC50 at 3 days in data set [2] was greater than 200 µM. Moreover, the “SI (selectivity index, CC50/EC50 ratio)” value with DENV-2 [4] is on record as greater than 35.1. Also, the “Clinical scores and body weight (DENV-induced pathology)” value with DENV-2 [5] (setting [8]) was “reduced DENV-induced pathology”. In addition, the Survival rate entry with DENV-2 [5] (setting [8]) is “significantly protected the mice”.

For the compound `COC(=O)c1[nH]c2ccc(Cl)cc2c1C(=O)c1cc(OC)c(O)c(OC)c1` [Compound 4, Methyl 5-chloro-3–(4-hydroxy-3,5-dimethoxybenzoyl)-1H-indole-2-carboxylate], the EC50 on DENV NS2B/NS3pro protein was 4.72 µM and 4.7 µM; with DENV-2 [4] (setting [9]), 4.6 ± 0.3 µM; at DENV-2 NS3 protease it was 6.71 µM and 6.7 µM. Also, in data set [2], the CC50 at 3 days was 181 µM. The “SI (selectivity index, CC50/EC50 ratio)” value in the data set on DENV-2 [4] is given as 39.3. Further, the “Clinical scores and body weight (DENV-induced pathology)” value in the data set on DENV-2 [5] (setting [10]) is recorded as “reduced DENV-induced pathology”. In the data set with DENV-2 [5] (setting [10]), the Survival rate entry is recorded as “significantly protected the mice”.

Consider `CCOC(=O)c1cnn(C)c1NS(=O)(=O)c1ccc(-n2cccc2C(=O)c2ccccc2)cc1` [Compound 2, Ethyl 5–(4-(2-benzoyl-1H-pyrrol-1-yl)phenylsulphonamido)-1-methyl-1H-pyrazole-4-carboxylate], for which the concentration giving a half-maximal response (EC50) on DENV-2 NS5 RdRp [1] (setting [11]) was 7.22 µM and 7.2 µM; on DENV-2 NS5 RdRp [3] (setting [12]), 5.34 µM and 5.3 µM; in the data set with DENV-2 [4] (setting [6]) it was 7.61 ± 0.36 µM; with DENV-2 [4] (setting [7]), 7.6 ± 0.4 µM. Also, in data set [2], the CC50 at 3 days is greater than 200 µM. In the data set with DENV-2 [4], the “SI (selectivity index, CC50/EC50 ratio)” value is listed as greater than 26.3.

As for `CCOC(=O)c1cnn(C)c1N(S(=O)(=O)c1ccc(Cl)cc1)S(=O)(=O)c1ccc(Cl)cc1` [Compound 1, Ethyl 5–(4-chloro-N-((4-chlorophenyl)sulphonyl)phenylsulphonamido)-1-methyl-1H-pyrazole-4-carboxylate], the 50% effective concentration (EC50) on DENV-2 NS5 RdRp [1] (setting [11]) is 8.07 µM and 8.1 µM; on DENV-2 NS5 RdRp [3] (setting [12]) it was 7.78 µM and 7.8 µM; with DENV-2 [4] (setting [6]), 11.1 ± 0.21 µM; in the data set with DENV-2 [4] (setting [13]), 11.7 ± 0.2 µM. Besides, the CC50 at 3 days in data set [2] is 196 µM. The “SI (selectivity index, CC50/EC50 ratio)” value with DENV-2 [4] was 17.7.

For `COC(=O)c1[nH]c2ccc(Cl)cc2c1Cc1cc(OC)cc(OC)c1` [Compound 5, Methyl 5-chloro-3–(3,5-dimethoxybenzyl)-1H-indole-2-carboxylate], the CC50 at 3 days in data set [2] was greater than 200 µM. In the data set with DENV-2 [4], the “SI (selectivity index, CC50/EC50 ratio)” value is greater than 27.4. In addition, the EC50 is 7.28 ± 0.13 µM in the data set on DENV-2 [4] (setting [9]); 7.3 ± 0.3 µM in the data set on DENV-2 [4] (setting [13]); 7.92 µM and 7.9 µM at DENV-2 NS3 protease.
